Source: patent publication US5753648A, “Tricyclic benzazepine vasopressin antagonists” (American Cyanamid Company, priority 1996, dated 1998)

Experiments:
[1] = target: T1, Vasopressin V1 receptor subtype in Human Platelet Membranes (Homo sapiens, UniProt P37288); test: Binding to Vasopressin V1 receptor subtype in Human Platelet Membranes
T1 construct: Frozen platelet rich plasma (PRP), received from the Hudson Valley Blood Services, are thawed to room temperature; tissue Hudson Valley Blood Services; host or cells: human platelets (platelet rich plasma)
T1 sequence (P37288 whole entry): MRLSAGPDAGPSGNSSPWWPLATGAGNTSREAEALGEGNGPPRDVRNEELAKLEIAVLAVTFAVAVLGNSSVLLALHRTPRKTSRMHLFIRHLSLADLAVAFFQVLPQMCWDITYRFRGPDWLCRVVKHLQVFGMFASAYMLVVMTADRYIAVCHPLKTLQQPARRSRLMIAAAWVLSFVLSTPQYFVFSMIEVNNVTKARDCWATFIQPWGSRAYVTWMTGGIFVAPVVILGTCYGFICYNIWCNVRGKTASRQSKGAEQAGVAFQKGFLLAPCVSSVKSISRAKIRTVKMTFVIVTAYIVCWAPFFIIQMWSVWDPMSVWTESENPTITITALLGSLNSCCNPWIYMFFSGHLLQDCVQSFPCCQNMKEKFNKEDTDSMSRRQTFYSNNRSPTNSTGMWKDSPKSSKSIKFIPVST
Protocol: Radioligand Binding Experiments with Human Platelet Membranes
Platelet Source: Hudson Valley Blood Services,
Westchester Medical Center, Valhalla, N.Y.
Platelet Membrane Preparation
Frozen platelet rich plasma (PRP), received from the Hudson Valley Blood Services, are thawed to room temperature. The tubes containing the PRP are centrifuged at 16,000×g for 10 min. at 4° C. and the supernatant fluid discarded. The platelets resuspended in an equal volume of 50.0 mM Tris.HCl, pH 7.5 containing 120 mM NaCl and 20.0 mM EDTA. The suspension is recentrifuged at 16,000×g for 10 min. This washing step is repeated one more time. The wash discarded and the lysed pellets homogenized in low ionic strength buffer of Tris.HCl, 5.0 mM, pH 7.5 containing 5.0 mM EDTA. The homogenate is centrifuged at 39,000×g for 10 min. The resulting pellet is resuspended in Tris.HCl buffer, 70.0 mM, pH 7.5 and recentrifuged at 39,000×g for 10 min. The final pellet is resuspended in 50.0 mM Tris.HCl buffer pH 7.4 containing 120 mM NaCl and 5.0 mM KCl to give 1.0-2.0 mg protein per ml of suspension.
Binding to Vasopressin V1 receptor subtype in Human Platelet Membranes
In wells of 96 well format microtiter plate, add 100 μl of 50.0 mM Tris.HCl buffer containing 0.2% BSA and a mixture of protease inhibitors (aprotinin, leupeptin etc.). Then add 20 μl of [^3 H]Ligand (Manning or Arg^8 Vasopressin), to give final concentrations ranging from 0.01 to 10.0 nM. Initiate the binding by adding 80.0 μl of platelet suspension (approx. 100 μg protein). Mix all reagents by pipetting the mixture up and down a few times. Non specific binding is measured in the presence of 1.0 μM of unlabeled ligand (Manning or Arg^8 Vasopressin). Let the mixture stand undisturbed at room temperature for ninety (90) min. Upon this time, rapidly filter off the incubate under vacuum suction over GF/B filters, using a Brandel® Harvester. Determine the radioactivity caught on the filter disks by the addition of liquid scintillant and counting in a liquid scintillator.

[2] = target: T2, oxytocin receptors (Rattus norvegicus, UniProt P70536); test: Oxytocin Receptor Binding
T2 sequence (P70536 1-388): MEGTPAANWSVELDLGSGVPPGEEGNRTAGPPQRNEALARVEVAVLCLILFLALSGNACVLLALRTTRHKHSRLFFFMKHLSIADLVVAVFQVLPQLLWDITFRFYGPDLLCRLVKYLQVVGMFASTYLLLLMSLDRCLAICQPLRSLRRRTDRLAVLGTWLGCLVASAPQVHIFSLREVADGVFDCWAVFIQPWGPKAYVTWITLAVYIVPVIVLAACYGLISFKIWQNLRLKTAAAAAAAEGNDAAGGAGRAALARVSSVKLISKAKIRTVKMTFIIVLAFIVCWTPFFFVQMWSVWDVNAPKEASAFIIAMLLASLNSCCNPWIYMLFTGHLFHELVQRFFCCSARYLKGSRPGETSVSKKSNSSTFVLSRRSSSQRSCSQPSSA
Protocol: Female Sprague-Dawley rats weighing approximately 200-250 g are injected intramuscularly (i.m.) with 0.3 mg/kg of body weight of diethylstilbestrol (DES). The rats are sacrificed 18 hours later under pentobarbital anesthesia. The uteri are dissected out, cleaned of fat and connective tissues and rinsed in 50 ml of normal saline. The tissue pooled from six rats is homogenized in 50 ml of 0.01 mM Tris.HCl, containing 0.5 mM dithiothreitol and 1.0 mM EDTA, adjusted to pH 7.4, using a polytron at setting 6 with three passes of 10 sec each. The homogenate is passed through two (2) layers of cheesecloth and the filtrate centrifuged at 1000×g for 10 min. The clear supernatant is removed and recentrifuged at 165,000×g for 30 min. The resulting pellet containing the oxytocin receptors is resuspended in 50.0 mM Tris.HCl containing 5.0 mM MgCl2 at pH 7.4, to give a protein concentration of 2.5 mg/ml of tissue suspension. This preparation is used in subsequent binding assays with [^3 H]Oxytocin.
Binding of 3,5-[^3 H]Oxytocin ([^3 H]OT) to its receptors is done in microtiter plates using [^3 H]OT, at various concentrations, in an assay buffer of 50.0 mM Tris.HCl, pH 7.4 and containing 5.0 mM MgCl2, and a mixture of protease inhibitors: BSA, 0.1 mg; aprotinin, 1.0 mg; 1,10-phenanthroline, 2.0 mg; trypsin, 10.0 mg; and PMSF, 0.3 mg per 100 ml of buffer solution. Non-specific binding is determined in the presence of 1.0 uM unlabeled OT. The binding reaction is terminated after 60 min., at 220° C., by rapid filtration through glass fiber filters using a Brandel® cell harvester (Bio-medical Research and Development Laboratories, Inc., Gaithersburg, Md.). Competition experiments are conducted at equilibrium using 1.0 nM [^3 H]OT and varying the concentration of the displacing agents. The concentrations of agent displacing 50% of [^3 H]OT at its sites (IC50) are calculated by a computer assisted LUNDON-2 program (LUNDON SOFTWARE INC., Ohio, USA).

[3] = target: T3, Rat Kidney Medullary V2 Receptors (Rattus norvegicus, UniProt Q00788); test: biochemical; assay type: binding
T3 construct: Medullary tissues from rat kidneys are dissected out; from tissue; host or cells: rat kidney medulla membranes
T3 sequence (Q00788 whole entry): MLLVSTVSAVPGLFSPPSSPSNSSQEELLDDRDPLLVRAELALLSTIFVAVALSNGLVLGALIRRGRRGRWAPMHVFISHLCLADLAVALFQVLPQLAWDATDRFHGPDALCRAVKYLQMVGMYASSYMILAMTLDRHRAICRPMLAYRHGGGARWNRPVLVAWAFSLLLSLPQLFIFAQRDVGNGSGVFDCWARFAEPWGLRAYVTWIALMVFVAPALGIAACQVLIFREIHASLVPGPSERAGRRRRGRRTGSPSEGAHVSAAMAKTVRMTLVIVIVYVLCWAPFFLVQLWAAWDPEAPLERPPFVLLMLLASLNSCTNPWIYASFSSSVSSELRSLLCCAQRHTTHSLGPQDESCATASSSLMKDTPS

[4] = target: T4, Human V2 Vasopressin Receptor (Homo sapiens, UniProt P30518); test: Binding to Membranes of Mouse Fibroblast Cell Line (LV-2) Transfected with the cDNA Expressing the Human V2 Vasopressin Receptor; conditions: for IC50: LV-2 cells transfected with human V2 receptor cDNA, Table 5, read-out: Vasopressin Binding Human V2 Receptor
T4 construct: expressed in transfected cells; host or cells: mouse fibroblast cell line LV-2
T4 sequence (P30518 whole entry): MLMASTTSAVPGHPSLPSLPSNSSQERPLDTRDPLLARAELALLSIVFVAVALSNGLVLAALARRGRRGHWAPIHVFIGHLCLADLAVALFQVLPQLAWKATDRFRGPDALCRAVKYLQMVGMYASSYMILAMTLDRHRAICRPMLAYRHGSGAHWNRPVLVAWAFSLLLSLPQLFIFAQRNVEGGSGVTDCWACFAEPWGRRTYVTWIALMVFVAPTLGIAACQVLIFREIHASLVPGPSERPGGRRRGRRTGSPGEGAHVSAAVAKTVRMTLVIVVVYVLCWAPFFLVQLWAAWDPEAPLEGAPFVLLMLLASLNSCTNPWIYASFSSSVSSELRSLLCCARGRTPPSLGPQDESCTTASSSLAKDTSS
Protocol: Binding to Membranes of Mouse Fibroblast Cell Line (LV-2) Transfected with the cDNA Expressing the Human V2 Vasopressin Receptor Membrane Preparation
Flasks of 175 ml capacity, containing attached cells grown to confluence, are cleared of culture medium by aspiration. The flasks containing the attached cells are rinsed with 2×5 ml of phosphate buffered saline (PBS) and the liquid aspirated off each time. Finally, 5 ml of an enzyme free dissociation Hank's based solution (Specialty Media, Inc., Lafayette, N.J.) is added and the flasks are left undisturbed for 2 min. The content of all flasks is poured into a centrifuge tube and the cells pelleted at 300×g for 15 min. The Hank's based solution is aspirated off and the cells homogenized with a polytron at setting #6 for 10 sec in 10.0 mM Tris.HCl buffer, pH 7.4 containing 0.25M sucrose and 1.0 mM EDTA. The homogenate is centrifuged at 1500×g for 10 min to remove ghost membranes. The supernatant fluid is centrifuged at 100,000×g for 60 min to pellet the receptor protein. Upon completion, the pellet is resuspended in a small volume of 50.0 mM Tris.HCl buffer, pH 7.4. The protein content is determined by the Lowry method and the receptor membranes are suspended in 50.0 mM Tris.HCl buffer containing 0.1 mM phenylmethylsulfonylfluoride (PMSF) and 0.2% bovine serum albumin (BSA) to give 2.5 mg receptor protein per ml of suspension.
For binding experiments, the following is added in μl volume to wells of a 96 well format of a microtiter plate: 100.0 μl of 100.0 mM Tris.HCl buffer containing 0.2% heat inactivated BSA, 10.0 mM MgCl2 and a mixture of protease inhibitors: leupeptin, 1.0 mg %; aprotinin, 1.0 mg %; 1,10-phenanthroline, 2.0 mg %; trypsin inhibitor, 10.0 mg % and 0.1 mM PMSF, 20.0 μl of [^3 H] Arginine^8, vasopressin (S.A. 75.0 Ci/mmole) at 0.8 nM and the reaction initiated by the addition of 80.0 μl of tissue membranes (200.0 μg tissue protein). The plates are left undisturbed on the bench top for 120 min to reach equilibrium. Non specific binding is assessed in the presence of 1.0 μm of unlabeled ligand, added in 20 μl volume. For test compounds, these are solubilized in 50% dimethylsulfoxide (DMSO) and added in 20.0 μl volume to a final incubation volume of 200 μl. Upon completion of binding, the content of each well is filtered off, using a Brandel® cell Harvester (Gaithersburg, Md.). The radioactivity trapped on the filter disk by the ligand-receptor complex is assessed by liquid scintillation counting in a Packard LS Counter, with an efficiency of 65% for tritium. The data are analyzed for IC50 values by the LUNDON-2 program for competition (LUNDON SOFTWARE, Ohio).

[5] = test system: Endogenous Arginine Vasopressin Antidiuretic (V2) Response in Conscious Rats; test: Antagonism of Endogenous Arginine Vasopressin Antidiuretic (V2) Response in Conscious Rats (urine volume); assay type: in vivo, rat (Sprague-Dawley); conditions: 10 mg/kg rat p.o.; 4 hour collection
Description: Effects on the Antagonism of Endogenous Arginine Vasopressin Antidiuretic (V2) Response in Conscious Rats with Free Access to Water Drinking Before but not During the Experiment:
Male or female normotensive Sprague-Dawley rats (Charles River Laboratories, Inc., Kingston, N.Y.) of 400-450 g body weight were supplied with Laboratory Rodent Feed #5001 (PMI Feeds, Inc., Richmond, Id.) and water ad libitum. On the day of test, rats were placed individually into metabolic cages equipped with stainless steel screens (to separate the feces from the urine) and funnels for collection of urine. Vehicle or reference agent was given at various oral doses. During the test, rats were not provided with water or food. Urine was collected for four hours after dosing of the test compound. At the end of four hours, urine volume was measured. Urinary osmolality was determined using a Fiske One-Ten Osmometer (Fiske Associates, Norwood, Mass. 02062) or an Advanced CRYOMATIC Osmometer, Model 3C2 (Advanced Instruments, Norwood, Mass.). Determinations of Na^+, K^+ and Cl^- ion were carried out using ion specific electrodes in a Beckman SYNCHRON EL-ISE Electrolyte System analyzer. In the following results, increased urine volume and decreased osmolality relative to AVP-control indicates activity.

Row | Structure (SMILES) | inhibition at 10 µM [2] [%] | Urine Volume [5] [ml/4 hrs] | IC50 [4] [µM] | further results
1 | Cc1c(F)cccc1C(=O)Nc1ccc(C(=O)N2Cc3cccn3Cc3ccccc32)cn1 [Example 4] | 100 |  |  | IC50 ([1]; * V1 receptor subtype in human platelet): 0.044 µM; IC50 ([2]; rat uterine membranes, [3H]oxytocin): 0.67 µM; IC50 [3]: 0.001 µM
2 | COc1cc(C(=O)Nc2ccc(C(=O)N3Cc4cccn4Cc4ccccc43)cn2)cc(OC)c1OC [Example 5] | 93 |  |  | inhibition at 10 µM ([1]; 1.5 h, * human platelet V1): 51%; inhibition at 10 µM ([4]; ** human V2, LV-2 cell membranes, at 10 μM): 47%
3 | COc1cc(C(=O)Nc2ccc(C(=O)N3Cc4ccc(CN(C)C)n4Cc4ccccc43)cn2)cc(OC)c1OC [Example 133, N-[5-[[3-[(Dimethylamino)methyl]-[5H-pyrrolo[2,1-c][1,4]benzodiazepin-10(11H)]yl]carbonyl]-2-pyridinyl]-3,4,5-trimethoxybenzamide] | 59 |  |  | inhibition at 10 µM ([1]; 1.5 h, * human platelet V1): 11%; inhibition at 10 µM ([3]; at 10 μM): 21%
4 | CN(C)CCCNc1ncccc1C(=O)Nc1ccc(C(=O)N2Cc3cccn3Cc3ccccc32)cc1 [Example 335, N-[4-(5H-pyrrolo[2,1-c][1,4]benzodiazepin-10(11H)-ylcarbonyl)phenyl]-2-[(3-dimethylaminopropyl)amino]pyridine-3-carboxamide] |  |  |  | inhibition at 1 µM ([1]; 1.5 h, * human platelet V1, at 1 μM): 100%; inhibition at 1 µM ([3]; at 1 μM): 60%
5 | O=C(Nc1ccc(C(=O)N2Cc3cccn3Cc3ccccc32)c(Cl)c1)c1ccccc1-n1cccc1 [Example 377, N-[3-Chloro-4-(5H,11H-pyrrolo{2,1-c][1,4]benzodiazepine-10-carbonyl)-phenyl]-2-pyrrol-1-yl-benzamide] |  | 13.2 | 0.0045 | 
6 | O=C(Nc1ccc(C(=O)N2Cc3cccn3Cc3ccccc32)c(Cl)c1)c1cccc2cccnc12 [Example 378, Ouinoline-8-carboxylic acid [4-(5H,11H-pyrrolo[2,1-c][1,4]benzodiazepine-10-carbonyl)-3-phenyl]-amide] |  | 11.7 | 0.0691 | 
7 | CN(C)Cc1ccc2n1Cc1ccccc1N(C(=O)c1ccc(NC(=O)C3=C(c4ccccc4)CCC3)cc1Cl)C2 [Example 379, [3-Chloro-4-(3-dimethylaminomethyl-5H,11H-pyrrolo[2,1-c][1,4]benzodiazepine-10-carbonyl)-phenyl]-2-phenylcyclopent-1-enecarboxylic acid amide] |  | 18.9 | 0.0123 | 
